Results reported in patent publication US20130053243A1, “PLANTS HAVING INCREASED TOLERANCE TO HERBICIDES” (BASF SE, priority 2010, published 2013).

Assays:
[1] = tested on: Chlamydomonas strain CC1961 wild-type; test: Growth inhibition of Chlamydomonas strains (tolerance); type: cell-based, Chlamydomonas reinhardtii; details: read-out: IC50 of growth inhibition
Protocol: (§1) Algae cells of Chlamydomonas reinhardtii strains CC-503 and CC-1691 (Duke University, Durham, USA) are propagated in TAP medium (Gorman and Levine (1965) PNAS 54: 1665-1669) by constant shaking at 100 rpm, 22° C. and 30 μmol Phot*m^−2*[…] light illumination. Scenedesmus obliquus (University of Gottingen, Germany) are propagated in algae medium as described (Boger and Sandmann, (1993) In: Target assays for modern herbicides and related phytotoxic compounds, Lewis Publishers) under same culturing conditions as mentioned for Chlamydomonas. Compound screening is performed at 450 μmol Phot*m^−2*[…] illumination.
(§2) Sensitive strains of Chlamydomonas reinhardtii or Scenedesmus obliquus (Tables 14, 15) are mutated with 0.14 […] (EMS) for 1 h as described by Loppes (1969, Mol Gen Genet. 104: 172-177) Tolerant strains are identified by screening of mutagenized cells on solid nutrient solution plates containing “coumarone-derivative herbicides” or other HPPD inhibiting herbicides at wildype-lethal concentrations. Examples of the data obtained are depicted in Table 16 and FIG. 2.

[2] = tested on: Chlamydomonas strain CMr05; test: as above; type: cell-based, Chlamydomonas reinhardtii; details: read-out: IC50 of growth inhibition
Protocol: as §1, §2

[3] = tested on: Chlamydomonas strain CMr06; test: as above; type: cell-based, Chlamydomonas reinhardtii; details: read-out: IC50 of growth inhibition
Protocol: as §1, §2

[4] = tested on: Chlamydomonas strain CMr10; test: as above; type: cell-based, Chlamydomonas reinhardtii; details: read-out: IC50 of growth inhibition
Protocol: as §1, §2

[5] = tested on: Chlamydomonas strain CMr15; test: as above; type: cell-based, Chlamydomonas reinhardtii; details: read-out: IC50 of growth inhibition
Protocol: as §1, §2

[6] = tested on: soybean plants, wild type (non-transformed); test: Greenhouse spray test, soybean T0 cuttings; type: in vivo, Glycine max; details: no transgene, two weeks after treatment, scale 0 (no injury) to 9 (complete death)
Protocol: Transgenic plants expressing heterologous HPPD or HST enzymes are tested for tolerance against coumarone-derivative herbicides in greenhouse experiments.
For post emergence treatment, the test plants are first grown to a height of 3 to 15 cm, depending on the plant habit, and only then treated with the herbicides. For this purpose, the test plants are either sown directly and grown in the same containers, or they are first grown separately and transplanted into the test containers a few days prior to treatment.
For testing of T0 plants, cuttings can be used. In the case of soybean plants, an optimal shoot for cutting is about 7.5 to 10 cm tall, with at least two nodes present. Each cutting is taken from the original transformant (mother plant) and dipped into rooting hormone powder (indole-3-butyric acid, IBA). The cutting is then placed in oasis wedges inside a bio-dome. Wild type cuttings are also taken simultaneously to serve as controls. The cuttings are kept in the bio-dome for 5-7 days and then transplanted to pots and then acclimated in the growth chamber for two more days. Subsequently, the cuttings are transferred to the greenhouse, acclimated for approximately 4 days, and then subjected to spray tests as indicated. Depending on the species, the plants are kept at 10-25° C. or 20-35° C. The test period extends over 3 weeks. During this time, the plants are tended and their response to the individual treatments is evaluated. Herbicide injury evaluations are taken at 2 and 3 weeks after treatment. Plant injury is rated on a scale of 0 to 9, 0 being no injury and 9 being complete death.

## CC1=NOC(c2c(Cl)ccc(C3=C(O)c4ncccc4N(CC(F)F)S3(=O)=O)c2Cl)C1 (stereo not drawn) [Inhibitor 1, 3-[2,4-dichloro-3-(3-methyl-4,5-dihydroisoxazol-5-yl)phenyl]-1-(2,2-difluoroethyl)-2,2-dioxo-pyrido[3,2-c]thiazin-4-ol]
[1]
  IC50: 620 µM
[2]
  IC50: > 1000 µM
[3]
  IC50: > 1000 µM
[4]
  IC50: > 1000 µM
[5]
  IC50: > 1000 µM
[6]; 50 g/ha
  Injury evaluation (plant injury rating): 4.5
[6]; 100 g/ha
  Injury evaluation (plant injury rating): 5.5
[6]; 200 g/ha
  Injury evaluation (plant injury rating): 6

## Cc1c(C(=O)c2cnn(C)c2O)ccc(S(C)(=O)=O)c1C1=NOCC1 [Topramezone, reference compound]
[1]
  IC50: 140 µM
[2]
  IC50: 710 µM
[3]
  IC50: 860 µM
[4]
  IC50: 920 µM
[5]
  IC50: 230 µM
[6]; 6.25 g/ha
  Injury evaluation (plant injury rating): 7
[6]; 12.5 g/ha
  Injury evaluation (plant injury rating): 7
